Test results from patent US6727066B2, “Genes expressed in treated human C3A liver cell cultures” (Incyte Corporation, priority 2000, dated 2004).

How the values were obtained:
[1] = system: human C3A liver cell cultures; assay: Microarray differential expression of cDNAs in treated human C3A liver cell cultures; assay type: cell-based; conditions: change vs untreated C3A cells
From the text: Incyte clones represent template sequences derived from the LIFESEQ GOLD assembled human sequence database (Incyte Genomics). In cases where more than one clone was available for a particular template, the 5′-most clone in the template was used on the microarray. The GENEALBUM GEM series 1-6 microarrays (Incyte Genomics) contain 52,616 array elements which represent 17,472 annotated clusters and 35,144 unannotated clusters. The HUMAN GENOME GEM series 1-3 microarrays (Incyte Genomics) contain 28,626 array elements which represent 10,068 annotated clusters and 18,558 unannotated clusters. For the UNIGEM series microarrays (Incyte Genomics), Incyte clones were mapped to non-redundant Unigene clusters (Unigene database (build 46), NCBI; Shuler (1997) J Mol Med 75:694-698), and the 5′ clone with the strongest BLAST alignment (at least 90% identity and 100 bp overlap) was chosen, verified, and used in the construction of the microarray. The UNIGEM V microarray (Incyte Genomics) contains 7075 array elements which represent 4610 annotated genes and 2,184 unannotated clusters.
To construct microarrays, cDNAs were amplified from bacterial cells using primers complementary to vector sequences flanking the cDNA insert. […] Amplified cDNAs were then purified using […]-400 columns (APB). Purified cDNAs were immobilized on polymer-coated glass slides. Glass microscope slides (Corning, Corning N.Y.) were cleaned by ultrasound in 0.1% SDS and acetone, with extensive distilled water washes between and after treatments. Glass slides were etched in 4% hydrofluoric acid (VWR Scientific Products, West Chester Pa.), washed thoroughly in distilled water, and coated with 0.05% aminopropyl silane (Sigma Aldrich) in 95% ethanol. Coated slides were cured in a 110° C. oven. cDNAs were applied to the coated glass substrate using a procedure described in U.S. Pat. No. 5,807,522. One microliter of the cDNA at an average concentration of 100 ng/ul was loaded into the open capillary printing element by a high-speed robotic apparatus which then deposited about 5 nl of cDNA per slide.
Microarrays were UV-crosslinked using a […] UV-crosslinker (Stratagene), and then washed at room temperature once in 0.2% SDS and three times in distilled water. Non-specific binding sites were blocked by incubation of microarrays in 0.2% casein in phosphate buffered saline (Tropix, Bedford Mass.) for 30 minutes at 60° C. followed by washes in 0.2% SDS and distilled water as before.
Early confluent C3A cells (ATTC, Manassas Va.) were treated with captopril (0.5, 2, 48, and 60 μg/ml) for 1, 3, and 6 hours. Early confluent C3A cells were treated with enalapril (0.5, 2, 48, and 60 μg/ml) for 1, 3, and 6 hours. Early confluent C3A cells were treated with LY294002 (0.5, 2, 15, and 25 μg/ml) for 1, 3, and 6 hours. Early confluent C3A cells were starved of insulin for 3 days prior to treatment, then treated with LY294002 (10 μM) for 2, 24, 36, and 72 hours in the presence of insulin. Early confluent C3A cells were treated with DES (1, 10, and 100 μM) for 1, 3, and 6 hours. Early confluent C3A cells were treated with dexamethasone (1 and 20 μM) for 0, 2, 6, and 24 hours. Early confluent C3A cells were treated with MCA (0.5 and 10 μM) for 2, 6, and 24 hours. In all cases mRNA from untreated early confluent cells were prepared in parallel as described below.
Cells were harvested and lysed in 1 ml of TRIZOL reagent (5×10^6 cells/ml; Life Technologies). The lysates were vortexed thoroughly and incubated at room temperature for 2-3 minutes and extracted with 0.5 ml chloroform. The extract was mixed, incubated at room temperature for 5 minutes, and centrifuged at 15,000 rpm for 15 minutes at 4° C. The aqueous layer was collected and an equal volume of isopropanol was added.

[2] = cited from earlier work

CCOC(=O)[C@H](CCc1ccccc1)N[C@@H](C)C(=O)N1CCC[C@H]1C(=O)O [Enalapril]
expression level of cDNA clone 63038 [1]: −2.97 | expression level of cDNA clone 118501 [1]: 6.06 | expression level of cDNA clone 160822 [1]: 2.39 | expression level of cDNA clone 279898 [1]: 4.08 | expression level of cDNA clone 630625 [1]: 2.51 | expression level of cDNA clone 1308112 [1]: 2.14 | expression level of cDNA clone 1368834 [1]: 2.43 | expression level of cDNA clone 1379063 [1]: −2.44 | expression level of cDNA clone 1448718 [1]: −3.91 | expression level of cDNA clone 1696224 [1]: 3.97 | expression level of cDNA clone 1711151 [1]: 2.48 | expression level of cDNA clone 1861456 [1]: −2.51 | expression level of cDNA clone 1930235 [1]: 3 | expression level of cDNA clone 1975268 [1]: −2.75 | expression level of cDNA clone 1998269 [1]: 2.27 | expression level of cDNA clone 2055569 [1]: −3.1 | expression level of cDNA clone 2123516 [1]: 3.71 | expression level of cDNA clone 2513883 [1]: 3.82 | expression level of cDNA clone 2757583 [1]: 4.13 | expression level of cDNA clone 2884613 [1]: 2.51 | expression level of cDNA clone 2921991 [1]: −4.67 | expression level of cDNA clone 2933775 [1]: 4.73 | expression level of cDNA clone 2955163 [1]: 2.33 | expression level of cDNA clone 4556538 [1]: 3.02 | time of peak plasma concentration ([2]; enalapril given orally): within an hour | oral bioavailability ([2]; given orally, not reduced by food): about 60% | half-life ([2]; in vivo): 1.3 h

C[C@H](N[C@@H](CCc1ccccc1)C(=O)O)C(=O)N1CCC[C@H]1C(=O)O [Enalaprilat, enalaprilat]
plasma half-life ([2]; in vivo): about 11 hours

Cc1ccc2cc3c(ccc4ccccc43)c3c2c1CC3 [MCA, 3-methylcholanthrene]
expression level of cDNA clone 72713 [1]: 3 | expression level of cDNA clone 85606 [1]: 2.96 | expression level of cDNA clone 118501 [1]: 4.54 | expression level of cDNA clone 121785 [1]: 3.3 | expression level of cDNA clone 136073 [1]: 3.1 | expression level of cDNA clone 279898 [1]: 5.48 | expression level of cDNA clone 311346 [1]: 4.59 | expression level of cDNA clone 318486 [1]: 4.11 | expression level of cDNA clone 408886 [1]: 4.93 | expression level of cDNA clone 450856 [1]: 2.89 | expression level of cDNA clone 452321 [1]: 4.3 | expression level of cDNA clone 454839 [1]: 3.4 | expression level of cDNA clone 462069 [1]: 2.41 | expression level of cDNA clone 481402 [1]: 3.22 | expression level of cDNA clone 510056 [1]: 5.65 | expression level of cDNA clone 511448 [1]: 3.05 | expression level of cDNA clone 560115 [1]: −2.61 | expression level of cDNA clone 604019 [1]: 3.28 | expression level of cDNA clone 630625 [1]: 2.25 | expression level of cDNA clone 669498 [1]: −2.97 | expression level of cDNA clone 701484 [1]: 2.51 | expression level of cDNA clone 872017 [1]: 2.85 | expression level of cDNA clone 1308112 [1]: 2.28 | expression level of cDNA clone 1316801 [1]: 3.38 | expression level of cDNA clone 1379063 [1]: −3.63 | expression level of cDNA clone 1381654 [1]: 2.64 | expression level of cDNA clone 1457424 [1]: 2.93 | expression level of cDNA clone 1522880 [1]: 2.74 | expression level of cDNA clone 1560906 [1]: 3.13 | expression level of cDNA clone 1616783 [1]: 2.63 | expression level of cDNA clone 1619292 [1]: −2.8 | expression level of cDNA clone 1623214 [1]: −3.12 | expression level of cDNA clone 1630990 [1]: 3.34 | expression level of cDNA clone 1696224 [1]: 4.4 | expression level of cDNA clone 1756875 [1]: 2.99 | expression level of cDNA clone 1786554 [1]: 2.67 | expression level of cDNA clone 1833362 [1]: −2.33 | expression level of cDNA clone 1890576 [1]: −3.07 | expression level of cDNA clone 1930235 [1]: 2.93 | expression level of cDNA clone 1975268 [1]: −2.51 | expression level of cDNA clone 1998269 [1]: 2.46 | expression level of cDNA clone 2055867 [1]: −2.67 | expression level of cDNA clone 2120743 [1]: 2.97 | expression level of cDNA clone 2123516 [1]: 3.83 | expression level of cDNA clone 2195427 [1]: 2.32 | expression level of cDNA clone 2232658 [1]: 2.25 | expression level of cDNA clone 2252107 [1]: 2.44 | expression level of cDNA clone 2293496 [1]: −2.88 | expression level of cDNA clone 2343348 [1]: 2.89 | expression level of cDNA clone 2511277 [1]: 3.07 | expression level of cDNA clone 2513883 [1]: 3.67 | expression level of cDNA clone 2520894 [1]: 3.21 | expression level of cDNA clone 2579218 [1]: 2.42 | expression level of cDNA clone 2660756 [1]: 2.25 | expression level of cDNA clone 2675232 [1]: 3.09 | expression level of cDNA clone 2695371 [1]: 2.68 | expression level of cDNA clone 2708055 [1]: 2.45 | expression level of cDNA clone 2756333 [1]: 2.66 | expression level of cDNA clone 2757583 [1]: 4.31 | expression level of cDNA clone 2765271 [1]: 2.25 | expression level of cDNA clone 2822027 [1]: 2.96 | expression level of cDNA clone 2825358 [1]: 2.44 | expression level of cDNA clone 2831490 [1]: 2.48 | expression level of cDNA clone 2860918 [1]: −3.2 | expression level of cDNA clone 2884613 [1]: 2.2 | expression level of cDNA clone 2891601 [1]: 2.56 | expression level of cDNA clone 2912637 [1]: −4.29 | expression level of cDNA clone 2921991 [1]: −3.43 | expression level of cDNA clone 2955163 [1]: 3.24 | expression level of cDNA clone 2956444 [1]: 3.04 | expression level of cDNA clone 3074113 [1]: 3.03 | expression level of cDNA clone 3108506 [1]: 3.02 | expression level of cDNA clone 3158828 [1]: 2.67 | expression level of cDNA clone 3222802 [1]: 3.23 | expression level of cDNA clone 3225977 [1]: 2.59 | expression level of cDNA clone 3381870 [1]: 2.3 | expression level of cDNA clone 3407653 [1]: 2.7 | expression level of cDNA clone 3472927 [1]: 2.77 | expression level of cDNA clone 3493381 [1]: 2.62 | expression level of cDNA clone 3606046 [1]: 3.24 | expression level of cDNA clone 3792988 [1]: 3.23 | expression level of cDNA clone 4019706 [1]: 3.55 | expression level of cDNA clone 4070979 [1]: 2.44 | expression level of cDNA clone 4091186 [1]: 2.64 | expression level of cDNA clone 4092112 [1]: 3.55 | expression level of cDNA clone 4203937 [1]: 7.13 | expression level of cDNA clone 4246966 [1]: 3.03 | expression level of cDNA clone 4254855 [1]: 2.3 | expression level of cDNA clone 4284384 [1]: 2.73 | expression level of cDNA clone 4287327 [1]: −2.54 | expression level of cDNA clone 4403805 [1]: 2.4 | expression level of cDNA clone 4508879 [1]: 2.68 | expression level of cDNA clone 4549259 [1]: 2.53 | expression level of cDNA clone 4721130 [1]: 3.57 | expression level of cDNA clone 5093071 [1]: 2.36 | expression level of cDNA clone 5102731 [1]: 2.33 | expression level of cDNA clone 5266015 [1]: 2.47 | expression level of cDNA clone 5266376 [1]: 2.54 | expression level of cDNA clone 5512044 [1]: 2.26
